Source: publication PMC10368209, “Indolo[2,3-e]benzazocines and indolo[2,3-f]benzazonines and their copper(II) complexes as microtubule destabilizing agents” (Dalton Transactions (Cambridge, England : 2003), 2023)
In brackets after ≈: the same amount, converted by molar mass. Several values for one entry are separate records, joined by “and”; a condition that tells them apart may be missing. Equal entries are not always repeated. Where two headings read alike, the source gives them in different places.

What was measured:
[1] = test system: tubulin (colchicine site); test: Inhibition of [3H]colchicine binding to tubulin; conditions: 0.5 μM tubulin, 5 μM [3H]colchicine
Description: (§1) The methods used to determine the IC50 values for tubulin assembly and inhibition of [^3H]colchicine binding were recently described in detail.[96] In brief, for the assembly assay, 0.25 mL reaction mixtures contained 1.0 mg mL^−1 (10 μM) tubulin, 0.8 M monosodium glutamate (pH 6.6 with HCl in 2.0 M stock solution), 4% (v/v) DMSO (compound solvent), varying compound concentrations, and 100 μM GTP. All components except GTP were preincubated at 30 °C for 15 min in a 0.24 mL volume. Reaction mixtures were then placed on ice, and the GTP was added in a 10 μL volume. Assembly was monitored in Beckman DU7400/7500 spectrophotometers equipped with electronic temperature controllers and driven by a custom program. The samples were transferred to cuvettes held at 0 °C, and the temperature was jumped to 30 °C over about 30 s. Change in turbidity was measured for 20 min at 350 nm, and the IC50 was defined as the compound concentration that reduced the extent of reaction by 50%. For the colchicine binding assay, reaction mixtures contained 0.05 mg mL^−1 (0.5 μM) tubulin, 5.0 μM [^3H]colchicine, 5% (v/v) DMSO (compound solvent), compound as indicated, and components found to stabilize the colchicine binding activity of tubulin. Incubation was for 10 min at 37 °C, at which time the amount of colchicine bound to the tubulin is 40–60% of maximum. Each reaction mixture was diluted with 2.0 mL of ice cold water and poured onto a single Whatman DEAE-cellulose filter (tubulin binds tightly to the filter, and unbound colchicine passes through). Gravity filtration was used for the samples, and the filters were then washed with three 2.0 mL aliquots of ice cold water (vacuum aspiration). The filters were counted in a Beckman scintillation counter, with correction for the amount of radiolabel bound to filters in the absence of tubulin.

purified tubulin = test: Inhibition of tubulin assembly (turbidity); type: biochemical; conditions: 10 μM tubulin, 30 °C, turbidity at 350 nm; read-out: Inhibition of tubulin assembly IC50 ± SD
Description: as §1, with “Incubation was for 10 min at 37 °C, at which time the amount of colchicine bound to the tubulin is 40–60% of maximum. Each reaction mixture was diluted with 2.0 mL of ice cold water and poured onto a single Whatman DEAE-cellulose filter (tubulin binds tightly to the filter, and unbound colchicine passes through). Gravity filtration was used for the samples, and the filters were then washed with three 2.0 mL aliquots of ice cold water (vacuum aspiration).” left out

[2] = test system: MCF-7 breast cancer cells; test: In vitro cytotoxicity MTT assay; type: cell-based, human; conditions: for IC50: 72 h incubation, MTT
Description: The human cancer cell lines were purchased from LGC Promochem (Teddington, UK), and the MRC-5 cell line is a Sigma-Aldrich (Merck KGaA, Darmstadt, Germany) product. […] The MCF-7 and MRC-5 cells were cultured in Eagle's Minimal Essential Medium (EMEM) containing 4.5 g L^−1 of glucose and supplemented with a non-essential amino acid mixture, a selection of vitamins and 10% FBS. […] The cells were detached with Trypsin-Versene (EDTA) solution for 5 min at 37 °C.
Prior to the cytotoxicity assays 10 mM stock solutions of the tested compounds were prepared in DMSO. […] The positive control was doxorubicin (Merck), and CuCl2 was also tested. All cancer cells were treated with Trypsin-Versene (EDTA) solution. […] The final volume was 200 μL in the wells containing compounds and cells. The MCF-7 and MRC-5 cells were seeded overnight prior to the assay. The following day, the serial dilution of the compounds were made in separate plates and added to the cells. The culture plates were incubated at 37 °C for 72 h; and at the end of the incubation period, 20 μL of 5 mg mL^−1 3-(4,5-dimethylthiazol-2-yl)-2,5-diphenyltetrazolium bromide (MTT) solution was added to each well and incubated for 4 h at 37 °C. The plates were further incubated at 37 °C overnight following the addition of 100 μL of sodium dodecyl sulfate (SDS) solution (10% in 0.01 M HCl). The optical density (OD) was measured at 450 nm (ref. 620 nm) with a Multiscan EX ELISA reader to follow the cell growth. […] The sigmoidal dose–response model (comparing variable and fixed slopes) of the GraphPad Prism software[88] was used to fit the curves. The IC50 values are averages from at least 3 independent experiments.

[3] = test system: normal human embryonal lung fibroblast cells (MRC-5); test: In vitro cytotoxicity MTT assay; type: cell-based
Text: (§2) Four cell lines were used in this study: the doxorubicin-sensitive Colo205 (CCL-222, ATCC, Manassas, VA, USA) human colon adenocarcinoma cell line; the doxorubicin-resistant Colo320/MDR-LRP expressing P-glycoprotein (P-gp, ABCB1) (MDR1)-LRP (CCL-220.1, ATCC) human colon adenocarcinoma cell line; the hormone-responsive MCF-7 breast cancer cell line and the normal MRC-5 human embryonal lung fibroblast cell line (CCL-171, ATCC). The human cancer cell lines were purchased from LGC Promochem (Teddington, UK), and the MRC-5 cell line is a Sigma-Aldrich (Merck KGaA, Darmstadt, Germany) product. The Colo205 and Colo320 cell lines were cultured in RPMI 1640 medium supplemented with 10% fetal bovine serum (FBS), 2 mM L-glutamine, 1 mM Na-pyruvate and 10 mM HEPES. The MCF-7 and MRC-5 cells were cultured in Eagle's Minimal Essential Medium (EMEM) containing 4.5 g L^−1 of glucose and supplemented with a non-essential amino acid mixture, a selection of vitamins and 10% FBS. All cell lines were incubated at 37 °C, 5% CO2, 95% air atmosphere. The cells were detached with Trypsin-Versene (EDTA) solution for 5 min at 37 °C.
(§3) Prior to the cytotoxicity assays 10 mM stock solutions of the tested compounds were prepared in DMSO. These stock solutions were diluted with the culture medium (EMEM or RPMI 1640), and twofold serial dilutions of the compounds were prepared in 100 μL of the appropriate medium. […] The positive control was doxorubicin (Merck), and CuCl2 was also tested. All cancer cells were treated with Trypsin-Versene (EDTA) solution. A cell density of 1 × 10^4 cells was adjusted for the colon adenocarcinoma cells in 100 μL of RPMI 1640 medium and were added to each well, except for the medium control wells. The final volume was 200 μL in the wells containing compounds and cells. The MCF-7 and MRC-5 cells were seeded overnight prior to the assay. The following day, the serial dilution of the compounds were made in separate plates and added to the cells. The culture plates were incubated at 37 °C for 72 h; and at the end of the incubation period, 20 μL of 5 mg mL^−1 3-(4,5-dimethylthiazol-2-yl)-2,5-diphenyltetrazolium bromide (MTT) solution was added to each well and incubated for 4 h at 37 °C. The plates were further incubated at 37 °C overnight following the addition of 100 μL of sodium dodecyl sulfate (SDS) solution (10% in 0.01 M HCl). The optical density (OD) was measured at 450 nm (ref. 620 nm) with a Multiscan EX ELISA reader to follow the cell growth. Inhibition of cell growth (expressed as IC50: inhibitory concentration that reduces by 50% the growth of the cells exposed to the tested compounds) was determined from the sigmoid curve, where 100 − ((ODsample − ODmedium control)/(ODcell control − ODmedium control)) × 100 values were plotted against the logarithm of compound concentrations. The sigmoidal dose–response model (comparing variable and fixed slopes) of the GraphPad Prism software[88] was used to fit the curves. The IC50 values are averages from at least 3 independent experiments.

[4] = test system: doxorubicin-resistant Colo320 human colon adenocarcinoma cell line; test: In vitro cytotoxicity MTT assay; type: cell-based; conditions: for IC50: 72 h incubation, MTT
Text: as §2, §3

[5] = test system: Colo205 human colon adenocarcinoma cell line; test: In vitro cytotoxicity MTT assay; type: cell-based; conditions: for IC50: 72 h incubation, MTT
Text: as §2, §3

[6] = Thermodynamic solubility by UV-vis in saturated solutions; type: physicochemical; conditions: 20 mM HEPES buffer, 25 °C, aqueous buffer, thermodynamic from solid; pH 7.4 (20 mM HEPES), aqueous solution, T = 298 K, I = 0.10 M (KCl); read-out: Thermodynamic solubility S 7.4
Description: The thermodynamic solubility (S) of the studied compounds was determined in saturated solutions at pH 7.40 (20 mM HEPES buffer) in the absence of DMSO at 25.0 ± 0.1 °C. UV–vis spectrophotometry was applied to determine the concentration of the compounds using calibrating samples of the compounds of known concentrations dissolved in 100% DMSO and 50% (v/v) DMSO/buffered aqueous solutions.

[7] = Stability constants and pKa of Cu(II) complexes by UV-vis titrations; type: physicochemical; conditions: 30:70% (v/v) DMSO/H2O
Description: (§4) The UV–vis spectra were recorded on an Agilent Cary 8454 diode array spectrophotometer between 200 and 800 nm. Spectrophotometric titrations were carried out on samples containing the ligand (HL^1, HL^2, HL^5 or HL^1(7)) or the ligand and Cu(II) ions together at different ligand-to-metal ratios (1 : 1, 1.5 : 1, 2 : 1) by a KOH solution in a DMSO : water 30 : 70 (v/v) mixture as solvent at 25.0 ± 0.1 °C in the pH range from 1.7 to 12.7 using 0.1 M KCl ionic strength. The concentration of ligands was 10 μM. The path length was 5 cm. For pH measurements and titrations, an Orion 710A pH-meter equipped with a Metrohm combined electrode (type 6.0234.100) and a Metrohm 665 Dosimat burette was used. Blank titrations (HCl vs. KOH) were performed similarly to the method proposed by Irving et al. for pure aqueous solutions to calibrate the electrode system to the pH = −log[H+] scale in the DMSO–water solvent mixture.[83] The water ionization constant (pKw) was determined to be 14.52 ± 0.05 on average, which is in line with the literature data.[84] During the titrations argon was passed over the solutions. The computer program PSEQUAD was used to calculate the proton dissociation constants (pKa) of the ligands, the overall stability constants (log β) of the Cu(II) complexes and the individual spectra of the various species present in solution.[85] In the general equilibrium pM + qL + rH ⇌ MpLqHr the stability constants is defined as β(MpLqHr) = [MpLqHr]/[M]^p[L]^q[H]^r, where M denotes the Cu(II) ion and L the completely deprotonated ligand. The calculations were always performed from experimental data where no precipitation was observed during titration.

ct-DNA = test: Ethidium displacement from ct-DNA by spectrofluorimetry; type: binding, calf; conditions: cDNA = 0.5 μM, cethidium = 0.25 μM, 298 K, 10 mM HEPES, pH 7.40
Description: Fluorescence measurements were carried out on a Fluoromax (Horiba Jobin Yvon) fluorimeter. Stock solutions of the complexes and ligands were prepared in pure DMSO (c = 1 or 0.5 mM). Stock solution of ct-DNA was prepared as described recently.[86] The sample volume was […] and contained 0.5 μM ct-DNA expressed in base pairs, 0.25 μM ethidium and different concentrations of complexes 1, 2, 4, 5, 6, 4(6), 4(7) or ligands (HL^1, HL^2, HL^5, HL^6) in 10 mM HEPES buffer (pH 7.40). DMSO content of the samples varied between 0 and 1% (v/v). The excitation wavelength was 510 nm, and the fluorescence emission was measured in the range of 530–750 nm. Corrections for self-absorbance and inner filter effect were performed as described previously.[87]

[8] = Proton dissociation constants of ligands by UV-vis titrations; type: physicochemical; conditions: DMSO:water 30:70 (v/v) mixture, 30:70% (v/v) DMSO/H2O, T = 298 K, I = 0.10 M (KCl)
Description: as §4, with “In the general equilibrium pM + qL + rH ⇌ MpLqHr the stability constants is defined as β(MpLqHr) = [MpLqHr]/[M]^p[L]^q[H]^r, where M denotes the Cu(II) ion and L the completely deprotonated ligand. The calculations were always performed from experimental data where no precipitation was observed during titration.” left out

[9] = Homo sapiens, MRC5, 72 h incubation
[10] = Cu(II) complex of the ligand, T = 298 K, I = 0.10 M (KCl)
[11] = selectivity factor normal vs cancer cells

SMILES: COc1ccc(/C=C\c2cc(OC)c(OC)c(OC)c2)cc1O [CA-4, combretastatin A-4, reference compound]
- Inhibition of colchicine binding % inhibition ± SD ([1]; 0.5 μM inhibitor): 81 ± 4%
- Inhibition of colchicine binding % inhibition ± SD ([1]; 5 μM inhibitor): 98 ± 0.9%

SMILES: [Cl][Cu][Cl] [CuCl2, reference compound]
- IC50 [2]: 32 ± 3 µM
- IC50 ([3]; 72 h incubation): 40 ± 1 µM
- IC50 [4]: 20 ± 2 µM
- IC50 [5]: 33 ± 1 µM

SMILES: COc1cccc2c1C(=O)c1c(O)c3c(c(O)c1C2=O)C[C@@](O)(C(=O)CO)C[C@@H]3O[C@H]1C[C@H](N)[C@H](O)[C@H](C)O1 [Doxorubicin, doxorubicin, reference compound]
- IC50 ([2]; Homo sapiens, MCF7): 0.21 ± 0.03 µM
- IC50 [3, 9]: 1.16 ± 0.11 µM
- IC50 ([4]; Homo sapiens, COLO 320): 3.3 ± 0.1 µM
- IC50 ([5]; Homo sapiens, COLO 205): 0.82 ± 0.02 µM

SMILES: C(=N\N=C1/NCCc2ccccc2-c2c1[nH]c1ccccc21)/c1ccccn1 [HL^1]
- Inhibition of colchicine binding % inhibition ± SD ([1]; 5 μM inhibitor): 18 ± 5%
- Inhibition of colchicine binding % inhibition ± SD ([1]; 25 μM inhibitor): 46 ± 5%
- solubility thermodynamic [6]: 8 µM (≈ 2.92 µg/mL)
- log β [Cu(HL)]^2+ [7, 10]: 8.55 ± 0.02
- log β [Cu(L)]^+ [7, 10]: 4.14 ± 0.02
- log K′ [Cu(L)]^+ ([7]; K′: H2(HL)^2+ + Cu^2+ ⇌ [Cu(L)]^+ + 3H^+, 298 K): −2.97
- IC50 ([2]; Homo sapiens, MCF7): 1.3 ± 0.1 µM
- SF (MCF-7) = IC50 MRC-5/IC50 MCF-7 [2, 11]: 31.03
- Displacement of intercalated ethidium from ct-DNA (in words) (ct-DNA): could not displace the intercalated ethidium cation
- pKa ([8]; read-out: pKa1 H2(HL)^2+): 2.07 ± 0.01
- pKa ([8]; read-out: pKa2 H(HL)^+): 5.04 ± 0.02
- IC50 [3, 9]: 40 ± 1 µM
- IC50 ([4]; Homo sapiens, COLO 320): 5.6 ± 0.1 µM
- SF (Colo320) = IC50 MRC-5/IC50 Colo320 [4, 11]: 7.26
- IC50 ([5]; Homo sapiens, COLO 205): 30 ± 2 µM
- SF (Colo205) = IC50 MRC-5/IC50 Colo205 [5, 11]: 1.37
